Experimental data published in ChEMBL document CHEMBL5131473, “One-pot synthesis of oxoaporphines as potent antitumor agents and investigation of their mechanisms of actions” (Eur J Med Chem, 2022).
The source made the active and inactive calls. The calls are words filed in the database; no cut-off is given here.

What was measured:
T-24 [1] = experiment: Induction of DNA damage in human T24 cells assessed as increase in gamma H2AX phosphorylation at 10 uM incubated for 24 hrs by Hoechst33258 staining based immunofluorescence assay; type: functional, cell-based
T-24 [2] = experiment: Induction of apoptosis in human T24 cells assessed as late apoptotic cells at 15 uM incubated for 24 hrs by Annexin-V/PI staining based flow cytometry analysis (reference value: 0.543 %); type: functional
T-24 [3] = experiment: Induction of mitochondrial membrane potential dysfunction in human T24 cells assessed as depolarised cells at 10 uM incubated for 24 hrs by JC-1 staining based flow cytometry (reference value: 6.20%); type: functional
T-24 [4] = experiment: Induction of cell cycle arrest in human T24 cells assessed as accumulation of cells at S phase at 15 uM incubated for 24 hrs by propidium iodide/RNase A staining based flow cytometry analysis (reference value: 42.47 %); type: functional
T-24 [5] = experiment: Induction of apoptosis in human T24 cells assessed as viable cells at 10 uM incubated for 24 hrs by Annexin-V/PI staining based flow cytometry analysis (reference value: 94.3 %); type: functional; details: read-out: Activity
T-24 [6] = experiment: Induction of mitochondrial membrane potential dysfunction in human T24 cells assessed as increase in fragmentation at 10 uM incubated for 24 hrs by TEM analysis; type: functional, cell-based
T-24 [7] = experiment: Induction of apoptosis in human T24 cells assessed as contracted small fragmented nuclei at 10 uM by Hoechst33258 staining based fluorescence microscopy; type: functional, cell-based
T-24 [8] = experiment: Induction of apoptosis in human T24 cells assessed as viable cells at 20 uM incubated for 24 hrs by Annexin-V/PI staining based flow cytometry analysis (reference value: 94.3 %); type: functional; details: read-out: Activity
T-24 [9] = experiment: Induction of ROS generation in human T24 cells at 10 uM by fluorescence microscopy; type: functional, cell-based
T-24 [10] = experiment: Induction of apoptosis in human T24 cells assessed as increase in caspase 3 activity at 10 uM (Rvb= 3.1%); type: functional
T-24 [11] = experiment: Induction of apoptosis in human T24 cells assessed as early apoptotic cells at 20 uM incubated for 24 hrs by Annexin-V/PI staining based flow cytometry analysis (reference value: 3.27 %); type: functional
T-24 [12] = experiment: Induction of cell cycle arrest in human T24 cells assessed as accumulation of cells at G1 phase at 15 uM incubated for 24 hrs by propidium iodide/RNase A staining based flow cytometry analysis (reference value: 51.71 %); type: functional
T-24 [13] = experiment: Cytotoxicity against human T24 cells assessed as decrease in cell viability at 10 uM by MTT assay; type: functional, cell-based; details: TDE = time-dependent effect
T-24 [14] = experiment: Induction of mitochondrial mediated apoptosis in human T24 cells assessed as increase in Bak protein expression at 2 to 4 uM incubated for 24 hrs by Western blotting analysis; type: functional, cell-based; details: dose 2-4 µM
T-24 [15] = experiment: Induction of mitochondrial membrane potential dysfunction in human T24 cells assessed as shrinking mitochondria at 2 uM incubated for 24 hrs by TEM analysis; type: functional, cell-based
T-24 [16] = experiment: Induction of mitochondrial ROS generation in human T24 cells at 2 uM measured after 24 hrs by Mitotracker Red dye based confocal microscopy method; type: functional, cell-based
T-24 [17] = experiment: Induction of apoptosis in human T24 cells assessed as increase in caspase 9 activity at 2uM (Rvb= 7.2%); type: functional
T-24 [18] = experiment: Inhibition of cell migration in human T24 cells assessed as recovery of wound area at 1 uM measured after 24 hrs by wound healing assay based fluorescence microscopy; type: functional; design: scale not given: the % may be the effect or the level left
T-24 [19] = experiment: Induction of cell cycle arrest in human T24 cells assessed as accumulation of cells at G1 phase at 2 uM incubated for 24 hrs by propidium iodide/RNase A staining based flow cytometry analysis (reference value: 51.71 %); type: functional
T-24 [20] = experiment: Induction of apoptosis in human T24 cells assessed as viable cells at 6 uM incubated for 24 hrs by Annexin-V/PI staining based flow cytometry analysis (reference value: 94.3 %); type: functional; details: read-out: Activity
T-24 [21] = experiment: Induction of DNA damage in human T24 cells assessed as increase in gamma H2AX expression at 2 to 4 uM incubated for 24 hrs by Western blot analysis; type: functional, cell-based; details: dose 2-4 µM
T-24 [22] = experiment: Induction of mitochondrial membrane potential dysfunction in human T24 cells assessed as depolarised cells at 2 uM incubated for 24 hrs by JC-1 staining based flow cytometry (reference value: 6.20%); type: functional
T-24 [23] = experiment: Cytotoxicity against human T24 cells assessed as decrease in cell viability at 2 uM by MTT assay; type: toxicity, cell-based; details: t-24, 72 h, TDE = time-dependent effect
T-24 [24] = experiment: Induction of cell cycle arrest in human T24 cells assessed as accumulation of cells at G2/M phase at 4 uM incubated for 24 hrs by propidium iodide/RNase A staining based flow cytometry analysis (reference value: 5.82 %); type: functional
T-24 [25] = experiment: Induction of mitochondrial membrane potential dysfunction in human T24 cells assessed as decrease in ATP production at 4 uM; type: functional; design: scale not given: the % may be the effect or the level left
T-24 [26] = experiment: Potency index, ratio of oxoaporphine IC50 to test compound IC50 for anticancer activity against human T24 cells; type: functional
T-24 [27] = experiment: Induction of ROS generation in human T24 cells at 0.5 uM by fluorescence microscopy; type: functional, cell-based
T-24 [28] = experiment: Inhibition of colony formation in human T24 cells at 0.01 uM incubated for 24 hrs and measured for 10 days; type: functional, cell-based
T-24 [29] = experiment: Induction of mitochondrial membrane potential dysfunction in human T24 cells assessed as nuclear condensation at 0.5 to 1 uM by mito-tracker green dye based fluorescence microscopy; type: functional, cell-based; details: dose 0.5-1 µM
T-24 [30] = experiment: Induction of apoptosis in human T24 cells assessed as late apoptotic cells at 1 uM incubated for 24 hrs by Annexin-V/PI staining based flow cytometry analysis (reference value: 0.543 %); type: functional
T-24 [31] = experiment: Induction of cell cycle arrest in human T24 cells assessed as accumulation of cells at S phase at 1 uM incubated for 24 hrs by propidium iodide/RNase A staining based flow cytometry analysis (reference value: 42.47 %); type: functional
T-24 [32] = experiment: Induction of cell cycle arrest in human T24 cells assessed as increase in CDK1 expression at 0.5 to 1 uM incubated for 24 hrs by chemiluminescence based Western blotting analysis; type: functional; details: dose 0.5-1 µM, DDE = dose-dependent effect
T-24 [33] = experiment: Induction of apoptosis in human T24 cells assessed as necrotic cells at 1 uM incubated for 24 hrs by Annexin-V/PI staining based flow cytometry analysis (reference value: 1.92 %); type: functional
T-24 [34] = experiment: Induction of apoptosis in human T24 cells assessed as early apoptotic cells at 1 uM incubated for 24 hrs by Annexin-V/PI staining based flow cytometry analysis (reference value: 3.27 %); type: functional
T-24 [35] = experiment: Induction of mitochondrial Ca2+ production in human T24 cells assessed as increase in intracellular Ca2+ concentration at 0.5 uM by Rhod2-AM staining based fluorescence microscopic method; type: functional, cell-based
T-24 [36] = experiment: Induction of mitochondrial mediated apoptosis in human T24 cells assessed as upregulation of apaf-1 expression at 0.5 to 1 uM incubated for 24 hrs by Western blotting analysis; type: functional, cell-based; details: dose 0.5-1 µM
T-24 [37] = experiment: Induction of mitochondrial membrane potential dysfunction in human T24 cells assessed as disappearance of cristae at 0.5 uM incubated for 24 hrs by TEM analysis; type: functional, cell-based

In the case of `O=C1c2ccccc2-c2cccc3ccnc1c23`, the Activity (T-24 [1]) was “Active”, the Activity (T-24 [2]) was 6.56% and the Activity (T-24 [3]) was 11.7%. The Activity (T-24 [4]) was 46.29%, the viability at 10 µM (T-24 [5]) was 79.1% and the Activity (T-24 [6]) was “Active”. For the same molecule, the Activity (T-24 [7]) was “Active”, the viability at 20 µM (T-24 [8]) was 56.2% and the Activity (T-24 [9]) was “Active”. The Activity (T-24 [10]) was 19.9%, the Activity (T-24 [11]) was 36.6% and the Activity (T-24 [12]) was 31.02%. For the same molecule, the Activity (T-24 [13]) was “Tde”.

In the case of `O=C1c2cc([N+](=O)[O-])ccc2-c2ccc([N+](=O)[O-])c3ccnc1c23`, the Activity (T-24 [14]) was “Active”, the Activity (T-24 [15]) was “Active” and the Activity (T-24 [16]) was “Active”. It also gave an Activity (T-24 [17]) of 27.5%, an Activity (T-24 [18]) of 20.1% and an Activity (T-24 [19]) of 0.27%. For the same molecule, the viability at 6 µM (T-24 [20]) was 54.1%, the Activity (T-24 [21]) was “Active” and the Activity (T-24 [22]) was 15.9%. For the same molecule, the Activity (T-24 [23]) was “Tde”, the Activity (T-24 [24]) was 14.18% and the Activity (T-24 [25]) was 43.1%.

`O=C1c2ccccc2-c2ccc([N+](=O)[O-])c3ccnc1c23` was tested, and the “Ratio IC50” value (T-24 [26]) was 19, the Activity (T-24 [27]) was “Active” and the inhibition (T-24 [28]) was “Active”. The Activity (T-24 [29]) was “Active”, the Activity (T-24 [30]) was 6.25% and the Activity (T-24 [31]) was 35.21%. For the same molecule, the Activity (T-24 [32]) was “Dde”, the Activity (T-24 [33]) was 1.57% and the Activity (T-24 [34]) was 39.5%. The Activity (T-24 [35]) was “Active”, the Activity (T-24 [36]) was “Active” and the Activity (T-24 [37]) was “Active”.
